Reference: PubChem BioAssay AID328 (DTP/NCI, 2004)
Several values for one entry are separate records, joined by “and”; a condition that tells them apart may be missing. Equal entries are not always repeated. Inconclusive results and toxic doses are left out.

Test system: BDF1 mice, P388 leukemia ip, median survival T/C
Assay: NCI In Vivo Anticancer Drug Screen. Data for tumor model P388 Leukemia (intraperitoneal) in B6D2F1 (BDF1) mice
Conditions: endpoint: median survival time, higher = longer survival
Procedure, shortened: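 In tumour-bearing mice, survival after compound treatment is set against the vehicle group and given as a quotient.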

[1] = dose: 100.0 mg/kg/injection, schedule: Q01DX009 (ip), vehicle: saline with Tween-80
[2] = dose: 100.0 mg/kg/injection, schedule: Q04DX003 (ip), vehicle: saline with Tween-80
[3] = dose: 200.0 mg/kg/injection, schedule: Q01DX009 (ip), vehicle: saline with Tween-80
[4] = dose: 200.0 mg/kg/injection, schedule: Q04DX003 (ip), vehicle: saline with Tween-80
[5] = dose: 400.0 mg/kg/injection, schedule: Q01DX009 (ip), vehicle: saline with Tween-80
[6] = dose: 400.0 mg/kg/injection, schedule: Q04DX003 (ip), vehicle: saline with Tween-80
[7] = dose: 12.5 mg/kg/injection, schedule: Q01DX009 (ip), vehicle: saline with Tween-80
[8] = dose: 25.0 mg/kg/injection, schedule: Q01DX009 (ip), vehicle: saline with Tween-80
[9] = dose: 50.0 mg/kg/injection, schedule: Q01DX009 (ip), vehicle: saline with Tween-80
[10] = dose: 50.0 mg/kg/injection, schedule: Q01DX009 (ip), vehicle: saline
[11] = dose: 50.0 mg/kg/injection, schedule: Q04DX003 (ip), vehicle: saline
[12] = dose: 100.0 mg/kg/injection, schedule: Q01DX009 (ip), vehicle: saline
[13] = dose: 100.0 mg/kg/injection, schedule: Q04DX003 (ip), vehicle: saline
[14] = dose: 200.0 mg/kg/injection, schedule: Q01DX009 (ip), vehicle: saline
[15] = dose: 50.0 mg/kg/injection, schedule: Q04DX003 (ip), vehicle: Klucel (hydroxypropylcellulose) (HPC)
[16] = dose: 100.0 mg/kg/injection, schedule: Q04DX003 (ip), vehicle: Klucel (hydroxypropylcellulose) (HPC)

With `COc1cc([C@@H]2c3cc4c(c(O)c3C[C@H]3COC(=O)[C@@H]32)OCO4)cc(OC)c1OC` the T/C (dose: 0.5 mg/kg/injection, schedule: Q01DX001 (ip), vehicle: other) was 115 % of control, the T/C (dose: 0.5 mg/kg/injection, schedule: Q01DX001 (ip), vehicle: saline) was 90 % of control and the T/C (dose: 0.5 mg/kg/injection, schedule: Q01DX010 (ip), vehicle: other) was 122 % of control. The T/C (dose: 1.0 mg/kg/injection, schedule: Q01DX001 (ip), vehicle: other) was 121 % of control, the T/C (dose: 1.0 mg/kg/injection, schedule: Q01DX001 (ip), vehicle: saline) was 109 % of control and the T/C (dose: 1.0 mg/kg/injection, schedule: Q01DX010 (ip), vehicle: other) was 150 % of control. For the same compound, the T/C (dose: 2.0 mg/kg/injection, schedule: Q01DX001 (ip), vehicle: saline) was 118 % of control, the T/C (dose: 2.0 mg/kg/injection, schedule: Q01DX010 (ip), vehicle: other) was 168 % of control and the T/C (dose: 2.0 mg/kg/injection, schedule: Q01DX010 (ip), vehicle: saline) was 104 % of control. For the same compound, the T/C (dose: 4.0 mg/kg/injection, schedule: Q01DX001 (ip), vehicle: saline) was 118 % of control.

With `O=C(/C=C/c1ccccc1)c1cccc(Br)c1` the T/C [1] was 91 % of control, the T/C [2] was 109 % of control and the T/C [3] was 98 % of control. The T/C [4] was 104 % of control, the T/C [5] was 119 % of control and the T/C [6] was 104 % of control.

`O=Cc1nc2ccccc2[nH]1` was tested, and the T/C [7] was 108 % of control, the T/C [8] was 101 % of control and the T/C [9] was 103 % of control. For the same compound, the T/C [1] was 111 % of control.

With `CC(C)CSc1ncnc2nc[nH]c12` the T/C [8] was 90 % of control, the T/C [9] was 100 % of control and the T/C [1] was 104 % of control and 122 % of control. The T/C [2] was 104 % of control, the T/C [4] was 86 % of control and the T/C [6] was 86 % of control.

With `CCOC(=O)/C(C)=C\c1c(C)[nH]c(=O)[nH]c1=O` the T/C [10] was 102 % of control, the T/C [11] was 104 % of control and the T/C [12] was 103 % of control. The T/C [13] was 100 % of control, the T/C [14] was 99 % of control and the T/C (dose: 200.0 mg/kg/injection, schedule: Q04DX003 (ip), vehicle: saline) was 95 % of control and 100 % of control. The T/C (dose: 400.0 mg/kg/injection, schedule: Q01DX009 (ip), vehicle: saline) was 96 % of control and the T/C (dose: 400.0 mg/kg/injection, schedule: Q04DX003 (ip), vehicle: saline) was 91 % of control and 95 % of control.

In the case of `C=CCNC(=O)C12CC3CC(CC(C3)C1)C2`, the T/C [9] is reported as 93 % of control, the T/C [1] is reported as 99 % of control and the T/C [3] is reported as 103 % of control.

With `COC1=C[C@H](C)[C@H]2C[C@@H]3OC(=O)CC[C@@H]3C[C@]2(C)C1=O` the T/C (dose: 2.0 mg/kg/injection, schedule: Q01DX009 (ip), vehicle: saline + alcohol) was 115 % of control, the T/C (dose: 4.0 mg/kg/injection, schedule: Q01DX009 (ip), vehicle: saline + alcohol) was 106 % of control and the T/C (dose: 8.0 mg/kg/injection, schedule: Q01DX009 (ip), vehicle: saline + alcohol) was 106 % of control. For the same compound, the T/C (dose: 16.0 mg/kg/injection, schedule: Q01DX009 (ip), vehicle: saline + alcohol) was 103 % of control.

`CCOC(=O)N1c2ccccc2C=CC1/C(N)=N/O` (stereo unspecified) was tested, and the T/C (dose: 25.0 mg/kg/injection, schedule: Q01DX009 (ip), vehicle: Klucel (hydroxypropylcellulose) (HPC)) was 109 % of control, the T/C (dose: 50.0 mg/kg/injection, schedule: Q01DX009 (ip), vehicle: Klucel (hydroxypropylcellulose) (HPC)) was 95 % of control and the T/C [15] was 95 % of control. For the same compound, the T/C (dose: 100.0 mg/kg/injection, schedule: Q01DX009 (ip), vehicle: Klucel (hydroxypropylcellulose) (HPC)) was 104 % of control and the T/C [16] was 95 % of control.

For `C=CCNC(=O)c1ccccc1OCC(=O)O`, the T/C (dose: 100.0 mg/kg/injection, schedule: Q01DX009 (ip), vehicle: gum acacia) was 100 % of control, the T/C (dose: 100.0 mg/kg/injection, schedule: Q04DX003 (ip), vehicle: gum acacia) was 100 % of control and the T/C (dose: 200.0 mg/kg/injection, schedule: Q01DX009 (ip), vehicle: gum acacia) was 95 % of control. The T/C (dose: 200.0 mg/kg/injection, schedule: Q04DX003 (ip), vehicle: gum acacia) was 91 % of control, the T/C (dose: 400.0 mg/kg/injection, schedule: Q01DX009 (ip), vehicle: gum acacia) was 91 % of control and the T/C (dose: 400.0 mg/kg/injection, schedule: Q04DX003 (ip), vehicle: gum acacia) was 108 % of control.

For `[NH-]C(CC(N)=O)C(=O)O.[NH-]C(CC(N)=O)C(=O)O.[Ni+2]` (stereo unspecified), the T/C (dose: 3.12 mg/kg/injection, schedule: Q01DX009 (ip), vehicle: water) was 88 % of control, the T/C (dose: 6.25 mg/kg/injection, schedule: Q01DX009 (ip), vehicle: water) was 100 % of control and the T/C (dose: 12.5 mg/kg/injection, schedule: Q01DX009 (ip), vehicle: water) was 94 % of control.

With `OCC1OC(n2cc(Cl)c3cncnc32)C(O)C1O` (stereo unspecified) the T/C [11] was 100 % of control and the T/C [13] was 90 % of control.

`ClC(Cl)=C1OCCO1` was tested, and the T/C [9] was 104 % of control, the T/C [1] was 98 % of control and the T/C [3] was 100 % of control.

For `COc1cc2ccc(CCN)cc2cc1OC`, the T/C [7] was 95 % of control, the T/C [8] was 108 % of control and the T/C [9] was 87 % of control.

For `O=C1C(Br)=CC(=C2C=C(Br)C(=O)C(Br)=C2)C=C1Br`, the T/C [15] was 113 % of control and the T/C [16] was 122 % of control.

`Cc1ccc(N=NNc2ccc(C)cc2)cc1` was tested, and the T/C (dose: 100.0 mg/kg/injection, schedule: Q01DX001 (ip), vehicle: Klucel (hydroxypropylcellulose) (HPC)) was 104 % of control, the T/C (dose: 200.0 mg/kg/injection, schedule: Q01DX001 (ip), vehicle: Klucel (hydroxypropylcellulose) (HPC)) was 104 % of control and the T/C (dose: 400.0 mg/kg/injection, schedule: Q01DX001 (ip), vehicle: Klucel (hydroxypropylcellulose) (HPC)) was 112 % of control.

`CC1CN(Cc2ccccc2)CC(C)N1` (stereo unspecified) was tested, and the T/C (dose: 50.0 mg/kg/injection, schedule: Q04DX003 (ip), vehicle: water) was 106 % of control, the T/C (dose: 100.0 mg/kg/injection, schedule: Q04DX003 (ip), vehicle: water) was 104 % of control and the T/C (dose: 200.0 mg/kg/injection, schedule: Q04DX003 (ip), vehicle: water) was 92 % of control.

For `Cc1onc(-c2ccccc2)c1C(=O)N1CCCN2C(=O)c3ccccc3C21` (stereo unspecified), the T/C [3] was 98 % of control.

`N#CC(Br)C(N)=O` (stereo unspecified) was tested, and the T/C (dose: 2.5 mg/kg/injection, schedule: Q01DX009 (ip), vehicle: saline) was 98 % of control and the T/C (dose: 5.0 mg/kg/injection, schedule: Q01DX009 (ip), vehicle: saline) was 120 % of control.

`CC1(C)OC(C)(C)c2c1nnc(-c1ccccc1)[n+]2[O-]` was tested, and the T/C (dose: 50.0 mg/kg/injection, schedule: Q01DX005 (ip), vehicle: saline with Tween-80) was 91 % of control, the T/C (dose: 100.0 mg/kg/injection, schedule: Q01DX005 (ip), vehicle: saline with Tween-80) was 98 % of control and the T/C (dose: 200.0 mg/kg/injection, schedule: Q01DX005 (ip), vehicle: saline with Tween-80) was 88 % of control.

For `CCN1CCC(OC(=O)c2ccccc2)(c2nccc3ccccc23)CC1`, the T/C [7] was 102 % of control, the T/C [8] was 111 % of control and the T/C [9] was 124 % of control.

In the case of `NC(=O)C(N)CCSCC(=O)O` (stereo unspecified), the T/C [10] is reported as 88 % of control, the T/C [12] is reported as 91 % of control and the T/C [14] is reported as 94 % of control.

In the case of `C=C1N(C)c2ccccc2C1(C)C`, the T/C (dose: 1.47 mg/kg/injection, schedule: Q01DX009 (ip), vehicle: saline with Tween-80) is reported as 104 % of control, the T/C (dose: 2.95 mg/kg/injection, schedule: Q01DX009 (ip), vehicle: saline with Tween-80) is reported as 118 % of control and the T/C (dose: 5.9 mg/kg/injection, schedule: Q01DX009 (ip), vehicle: saline with Tween-80) is reported as 122 % of control.

For `COC(=O)c1ccccc1NC(=O)NCCBr`, the T/C [16] was 90 % of control, the T/C (dose: 200.0 mg/kg/injection, schedule: Q04DX003 (ip), vehicle: Klucel (hydroxypropylcellulose) (HPC)) was 100 % of control and the T/C (dose: 400.0 mg/kg/injection, schedule: Q04DX003 (ip), vehicle: Klucel (hydroxypropylcellulose) (HPC)) was 104 % of control.

With `CCCCCCCCCCCCCCCC[N+]1([O-])CCCC1` the T/C [7] was 110 % of control, the T/C [8] was 99 % of control and the T/C [9] was 108 % of control.

For `O=c1[nH]c(Cl)nc2c(Cl)c(C(Cl)(Cl)Cl)nn12`, the T/C [8] was 104 % of control, the T/C (dose: 25.0 mg/kg/injection, schedule: Q04DX003 (ip), vehicle: saline with Tween-80) was 113 % of control and the T/C [9] was 109 % of control. The T/C (dose: 50.0 mg/kg/injection, schedule: Q04DX003 (ip), vehicle: saline with Tween-80) was 120 % of control, the T/C [1] was 106 % of control and the T/C [2] was 93 % of control and 104 % of control. For the same compound, the T/C [3] was 109 % of control, the T/C [5] was 104 % of control and the T/C [6] was 86 % of control.
